6 molecules from BindingDB's records for doi:10.1021/jm00020a026 (University of Michigan, 1995) can be followed below.

This assay in a line: antiviral activity in Human immunodeficiency virus-1 as reverse transcriptase activity in culture supernatant.

pIC50: −log10 of the molar value.

Molecule `N#Cc1cn([C@@H]2O[C@H](CO)[C@@H](O)[C@@H]2F)c2ncnc(N)c12` showed a negative logarithm of the IC50 (pIC50) of 4.92.

Take `N#Cc1cn([C@H]2O[C@H](CO)[C@@H](O)[C@@H]2F)c2ncnc(N)c12`: the negative-log IC50 (pIC50) is under 4.00. With `N#Cc1c(Br)n([C@H]2O[C@H](CO)[C@@H](O)[C@@H]2F)c2ncnc(N)c12` the figure was 4.49; with `Cc1cn([C@H]2C[C@H](N=[N+]=[N-])[C@@H](CO)O2)c(=O)[nH]c1=O` [1-((2R,4S,5S)-4-Azido-5-hydroxymethyl-tetrahydro-furan-2-yl)-5-methyl-1H-pyrimidine-2,4-dione], 7.96. With `NC(=S)c1cn(C2OC(CO)C(O)C2F)c2ncnc(N)c12` (stereo unspecified) [4-Amino-7-(3-fluoro-4-hydroxy-5-hydroxymethyl-tetrahydro-furan-2-yl)-7H-pyrrolo[2,3-d]pyrimidine-5-carbothioic acid amide], the pIC50 was 7.15. The figure for `NC(=O)c1cn(C2OC(CO)C(O)C2F)c2ncnc(N)c12` (stereo unspecified) [4-Amino-7-(3-fluoro-4-hydroxy-5-hydroxymethyl-tetrahydro-furan-2-yl)-7H-pyrrolo[2,3-d]pyrimidine-5-carboxylic acid amide] is 7.70.
